# Assay results published in publication PMC11992225, “Antibacterial compounds against non-growing and intracellular bacteria” (npj Antimicrobials and Resistance, 2025).
# pEC50: −log10 of the molar value. Values joined by “and” are separate entries in the source; they are usually repeats but may differ in a detail not shown here. Equal values may be shown once. Read-outs that look alike come from different tables or passages of the source.
# Legend:
# S. aureus DSM2569 = assay: MIC, standard microdilution assay, growing S. aureus; format: cell-based, Staphylococcus aureus; conditions: Staphylococcus aureus, DSM2569; S. aureus; CA-MHB pH 7.4; read-out: MIC (μM) CA-MHB
# Summary of the method: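 Broth microdilution was used throughout. UPEC, P. aeruginosa and S. aureus were tested in CA-MHB buffered with 40 mM HEPES (pH 7.4); UPEC was additionally tested in LPM with 30 mM MES (pH 5.5). S. flexneri was grown in TSB. All determinations were run in triplicate.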
# non-growing UPEC CFT073 [1] = assay: Dilution-regrowth assay (screen, hit validation, dose-response) on stationary-phase UPEC; format: cell-based, Escherichia coli; conditions: for Regrowth: OD600 after dilution into drug-free medium (mean): OD600 at 6h or 8h; for pEC50: Escherichia coli
# Summary of the method: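 Regrowth (OD600 after 6 h, 37 °C) of diluted non-growing CFT073, following 24 h compound treatment of 24 h stationary cultures, defines activity relative to untreated control. Screen at 20 µM, validation at 20, 10, 5 µM (duplicates), dose–response in three biological replicates fitted by five-parameter logistic.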
# non-growing UPEC CFT073 [2] = assay: Dose-dependent killing analysis (CFU spot-plating) of stationary-phase UPEC; format: cell-based, Escherichia coli
# Summary of the method: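 Killing assessed by CFU counts: overnight 37 °C LB agar spot plates (10 μl drops of 10-fold PBS dilutions) scored at the lowest dilution with distinct colonies. Samples were compound-treated non-growing UPEC CFT073, 200 μl per well. Performed as three biological replicates.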
# [3] = system: non-growing S. aureus DSM2569; assay: Dose-dependent killing analysis (CFU spot-plating) of stationary-phase S. aureus; format: cell-based, Staphylococcus aureus; conditions: S. aureus; for Killing: average Δlog10(CFU/ml): vs 9,097 before treatment
# Summary of the method: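 Survival was scored as CFU after overnight growth at 37 °C on LB agar, using spots from 10-fold PBS dilutions of treated cultures. Non-growing S. aureus DSM2569 had been exposed to compound for 24 h in 1:4 CA-MHB, pH 7.4. Three biological replicates were run.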
# [4] = E. coli in 1:4 CA-MHB (pH 7.4), concentration 0.25
# [5] = E. coli in 1:4 CA-MHB (pH 7.4), concentration 0.5
# [6] = E. coli in 1:4 CA-MHB (pH 7.4), concentration 1
# [7] = E. coli in 1:4 CA-MHB (pH 7.4), concentration 2.5
# [8] = E. coli in 1:4 CA-MHB (pH 7.4), concentration 5
# [9] = E. coli in 1:4 CA-MHB (pH 7.4), concentration 10
# [10] = E. coli in LPM (pH 5.5), concentration 0.25
# [11] = E. coli in LPM (pH 5.5), concentration 0.5
# [12] = E. coli in LPM (pH 5.5), concentration 1
# [13] = E. coli in LPM (pH 5.5), concentration 2.5
# [14] = E. coli in LPM (pH 5.5), concentration 5
# [15] = E. coli in LPM (pH 5.5), concentration 10
structure (smiles),measurement,setting,value
CO[C@H]1/C=C/O[C@@]2(C)Oc3c(C)c(O)c4c(O)c(c(/C=N/N5CCN(C6CCCC6)CC5)c(O)c4c3C2=O)NC(=O)/C(C)=C\C=C\[C@H](C)[C@H](O)[C@@H](C)[C@@H](O)[C@@H](C)[C@H](OC(C)=O)[C@@H]1C [Rifapentine],MIC,S. aureus DSM2569,0.0125 µM
same,Regrowth: OD600 after dilution into drug-free medium (mean),non-growing UPEC CFT073 [1]; [4],0.612
same,Regrowth: OD600 after dilution into drug-free medium (mean),non-growing UPEC CFT073 [1]; [5],0.591
same,Regrowth: OD600 after dilution into drug-free medium (mean),non-growing UPEC CFT073 [1]; [6],0.589
same,Regrowth: OD600 after dilution into drug-free medium (mean),non-growing UPEC CFT073 [1]; [7],0.581
same,Regrowth: OD600 after dilution into drug-free medium (mean),non-growing UPEC CFT073 [1]; [8],0.558
same,Regrowth: OD600 after dilution into drug-free medium (mean),non-growing UPEC CFT073 [1]; [9],0.549
same,Regrowth: OD600 after dilution into drug-free medium (mean),"non-growing UPEC CFT073 [1]; E. coli in 1:4 CA-MHB (pH 7.4), concentration 30",0.527
same,Regrowth: OD600 after dilution into drug-free medium (mean),non-growing UPEC CFT073 [1]; [10],0.548
same,Regrowth: OD600 after dilution into drug-free medium (mean),non-growing UPEC CFT073 [1]; [11],0.505
same,Regrowth: OD600 after dilution into drug-free medium (mean),non-growing UPEC CFT073 [1]; [12],0.379
same,Regrowth: OD600 after dilution into drug-free medium (mean),non-growing UPEC CFT073 [1]; [13],0.232
same,Regrowth: OD600 after dilution into drug-free medium (mean),non-growing UPEC CFT073 [1]; [14],0.178
same,Regrowth: OD600 after dilution into drug-free medium (mean),non-growing UPEC CFT073 [1]; [15],0.148
same,Regrowth: OD600 after dilution into drug-free medium (mean),"non-growing UPEC CFT073 [1]; E. coli in LPM (pH 5.5), concentration 30",0.112
same,pEC50,"non-growing UPEC CFT073 [1]; E. coli, LPM pH 5.5, regrowth delay of non-growing bacteria, 24 h treatment, OD600 6 h after 2500-fold dilution, read-out: EC50",5.93
same,pEC50,"non-growing UPEC CFT073 [1]; LPM pH 5.5 (red curve), medium assigned by comparison with Dataset 1, read-out: EC50 (regrowth inhibition curve, Fig. S4)",5.92
same,"log10(CFU/ml) after treatment, single replicates",non-growing UPEC CFT073 [2]; [4],9.114 log10(CFU/ml) and 8.301 log10(CFU/ml) and 8.415 log10(CFU/ml)
same,Killing: average Δlog10(CFU/ml),"non-growing UPEC CFT073 [2]; E. coli in 1:4 CA-MHB (pH 7.4), concentration 0.25, vs 8.977 before treatment",0.367 log10(CFU/ml)
same,"log10(CFU/ml) after treatment, single replicates",non-growing UPEC CFT073 [2]; [5],9.301 log10(CFU/ml) and 8.778 log10(CFU/ml) and 8.380 log10(CFU/ml)
same,Killing: average Δlog10(CFU/ml),"non-growing UPEC CFT073 [2]; E. coli in 1:4 CA-MHB (pH 7.4), concentration 0.5, vs 8.977 before treatment",0.158 log10(CFU/ml)
same,"log10(CFU/ml) after treatment, single replicates",non-growing UPEC CFT073 [2]; [6],9.079 log10(CFU/ml) and 8.602 log10(CFU/ml) and 8.342 log10(CFU/ml)
same,Killing: average Δlog10(CFU/ml),"non-growing UPEC CFT073 [2]; E. coli in 1:4 CA-MHB (pH 7.4), concentration 1, vs 8.977 before treatment",0.303 log10(CFU/ml)
same,"log10(CFU/ml) after treatment, single replicates",non-growing UPEC CFT073 [2]; [7],9.176 log10(CFU/ml) and 9.204 log10(CFU/ml) and 8.845 log10(CFU/ml)
same,Killing: average Δlog10(CFU/ml),"non-growing UPEC CFT073 [2]; E. coli in 1:4 CA-MHB (pH 7.4), concentration 2.5, vs 8.977 before treatment",-0.098 log10(CFU/ml)
same,"log10(CFU/ml) after treatment, single replicates",non-growing UPEC CFT073 [2]; [8],9.204 log10(CFU/ml) and 8.699 log10(CFU/ml) (2×)
same,Killing: average Δlog10(CFU/ml),"non-growing UPEC CFT073 [2]; E. coli in 1:4 CA-MHB (pH 7.4), concentration 5, vs 8.977 before treatment",0.110 log10(CFU/ml)
same,"log10(CFU/ml) after treatment, single replicates",non-growing UPEC CFT073 [2]; [9],9.114 log10(CFU/ml) and 8.362 log10(CFU/ml) and 8.204 log10(CFU/ml)
same,Killing: average Δlog10(CFU/ml),"non-growing UPEC CFT073 [2]; E. coli in 1:4 CA-MHB (pH 7.4), concentration 10, vs 8.977 before treatment",0.417 log10(CFU/ml)
same,"log10(CFU/ml) after treatment, single replicates",non-growing UPEC CFT073 [2]; [10],7.000 log10(CFU/ml) and 6.519 log10(CFU/ml) and 7.613 log10(CFU/ml)
same,Killing: average Δlog10(CFU/ml),"non-growing UPEC CFT073 [2]; E. coli in LPM (pH 5.5), concentration 0.25, vs 7.350 before treatment",0.307 log10(CFU/ml)
same,"log10(CFU/ml) after treatment, single replicates",non-growing UPEC CFT073 [2]; [11],6.954 log10(CFU/ml) and 6.699 log10(CFU/ml) and 7.531 log10(CFU/ml)
same,Killing: average Δlog10(CFU/ml),"non-growing UPEC CFT073 [2]; E. coli in LPM (pH 5.5), concentration 0.5, vs 7.350 before treatment",0.289 log10(CFU/ml)
same,"log10(CFU/ml) after treatment, single replicates",non-growing UPEC CFT073 [2]; [12],6.778 log10(CFU/ml) and 6.602 log10(CFU/ml) and 7.613 log10(CFU/ml)
same,Killing: average Δlog10(CFU/ml),"non-growing UPEC CFT073 [2]; E. coli in LPM (pH 5.5), concentration 1, vs 7.350 before treatment",0.353 log10(CFU/ml)
same,"log10(CFU/ml) after treatment, single replicates",non-growing UPEC CFT073 [2]; [13],7.079 log10(CFU/ml) and 6.447 log10(CFU/ml) and 7.491 log10(CFU/ml)
same,Killing: average Δlog10(CFU/ml),"non-growing UPEC CFT073 [2]; E. coli in LPM (pH 5.5), concentration 2.5, vs 7.350 before treatment",0.344 log10(CFU/ml)
same,"log10(CFU/ml) after treatment, single replicates",non-growing UPEC CFT073 [2]; [14],7.204 log10(CFU/ml) and 6.845 log10(CFU/ml) and 7.301 log10(CFU/ml)
same,Killing: average Δlog10(CFU/ml),"non-growing UPEC CFT073 [2]; E. coli in LPM (pH 5.5), concentration 5, vs 7.350 before treatment",0.234 log10(CFU/ml)
same,"log10(CFU/ml) after treatment, single replicates",non-growing UPEC CFT073 [2]; [15],6.778 log10(CFU/ml) and 7.041 log10(CFU/ml) and 7.204 log10(CFU/ml)
same,Killing: average Δlog10(CFU/ml),"non-growing UPEC CFT073 [2]; E. coli in LPM (pH 5.5), concentration 10, vs 7.350 before treatment",0.342 log10(CFU/ml)
same,"log10(CFU/ml) after treatment, single replicates",[3]; concentration 0.1,8.708 log10(CFU/ml) and 8.968 log10(CFU/ml) and 8.653 log10(CFU/ml)
same,Killing: average Δlog10(CFU/ml),[3]; concentration 0.1,0.321 log10(CFU/ml)
same,"log10(CFU/ml) after treatment, single replicates",[3]; concentration 0.5,8.732 log10(CFU/ml) and 8.954 log10(CFU/ml) and 8.491 log10(CFU/ml)
same,Killing: average Δlog10(CFU/ml),[3]; concentration 0.5,0.371 log10(CFU/ml)
same,"log10(CFU/ml) after treatment, single replicates",[3]; concentration 2.5,8.672 log10(CFU/ml) and 8.748 log10(CFU/ml) and 8.643 log10(CFU/ml)
same,Killing: average Δlog10(CFU/ml),[3]; concentration 2.5,0.409 log10(CFU/ml)
same,"log10(CFU/ml) after treatment, single replicates",[3]; concentration 10,8.756 log10(CFU/ml) and 8.477 log10(CFU/ml) and 8.544 log10(CFU/ml)
same,Killing: average Δlog10(CFU/ml),[3]; concentration 10,0.505 log10(CFU/ml)
